Literature values, collected in patent US6423339B1, “Liquisolid systems and methods of preparing same” (priority 1996, dated 2002).

How the values were obtained:
[1] = diuretic

Row | SMILES | Solubility in alcohol (descriptive) | Solubility in chloroform (descriptive) | Solubility in water (descriptive) | Volume of alcohol in which 1 gram of drug is soluble (per 1 gram of drug) [mL] | Volume of chloroform in which 1 gram of drug is soluble (per 1 gram of drug) | further results
1 | CCOC(=O)C(C)(C)Oc1ccc(Cl)cc1 [Clofibrate] | soluble | soluble | insoluble (1 part solute into 10,000 or more parts of water) | – | – | Solubility in other common organic solvents (descriptive): soluble; Stability (descriptive) (liquid drug): stable
2 | Cc1ccc(C)c(OCCCC(C)(C)C(=O)O)c1 [Gemflbrozil] | – | – | practically water-insoluble (1 part solute into 10,000 or more parts of water) | – | – | –
3 | NS(=O)(=O)c1cc2c(cc1Cl)NCNS2(=O)=O [Hydrochlorothiazide] | – | – | – | – | – | Potency relative to chlorothiazide [1]: 10 times
4 | CN1C(CCl)Nc2cc(Cl)c(S(N)(=O)=O)cc2S1(=O)=O (centres unmarked) [Methyclothiazide] | – | – | – | 92.5 | more than 10,000 ml | Solubility in acetone (descriptive): freely soluble; pka: 9.4; Volume of ether in which 1 gram of drug is soluble (per 1 gram of drug): 2,700 ml; Volume of water in which 1 gram of drug is soluble (per 1 gram of drug): more than 10,000 ml
5 | C[C@]12C=CC(=O)C=C1CC[C@@H]1[C@@H]2C(=O)C[C@@]2(C)[C@H]1CC[C@]2(O)C(=O)CO [Prednisone] | – | – | very slightly soluble | 150 | 200 mL | –
6 | CC(=O)S[C@@H]1CC2=CC(=O)CC[C@]2(C)[C@H]2CC[C@@]3(C)[C@@H](CC[C@@]34CCC(=O)O4)[C@H]12 [Spironolactone] | soluble | freely soluble | practically insoluble | – | – | Solubility in fixed oils (descriptive): slightly soluble
